These results are taken from ChEMBL document CHEMBL4177688, “Design, synthesis, and evaluation of A-ring-modified lamellarin N analogues as noncovalent inhibitors of the EGFR T790M/L858R mutant” (Bioorg Med Chem, 2017).

For test [1], the target named is Epidermal growth factor receptor (Homo sapiens, UniProt P00533). In kind it is single protein.
Description: Inhibition of recombinant wild type EGFR (696 to C-terminal residues) (unknown origin) preincubated for 30 mins followed by poly (Glu-Tyr) biotinylated peptide substrate addition measured after 30 mins in presence of ATP by ELISA
Test [2] has as its target Epidermal growth factor receptor (Homo sapiens, UniProt P00533, L858R/T790M). Briefly: Inhibition of recombinant EGFR (unknown origin) T790M/L858R double mutant preincubated for 30 mins followed by poly (Glu-Tyr) biotinylated peptide substrate addition measured after 30 mins in presence of ATP by ELISA. In general terms: An ELISA detects its analyte on a solid surface through an enzyme-linked reagent.

Sequence of Epidermal growth factor receptor (Homo sapiens, UniProt P00533) (P00533 whole entry): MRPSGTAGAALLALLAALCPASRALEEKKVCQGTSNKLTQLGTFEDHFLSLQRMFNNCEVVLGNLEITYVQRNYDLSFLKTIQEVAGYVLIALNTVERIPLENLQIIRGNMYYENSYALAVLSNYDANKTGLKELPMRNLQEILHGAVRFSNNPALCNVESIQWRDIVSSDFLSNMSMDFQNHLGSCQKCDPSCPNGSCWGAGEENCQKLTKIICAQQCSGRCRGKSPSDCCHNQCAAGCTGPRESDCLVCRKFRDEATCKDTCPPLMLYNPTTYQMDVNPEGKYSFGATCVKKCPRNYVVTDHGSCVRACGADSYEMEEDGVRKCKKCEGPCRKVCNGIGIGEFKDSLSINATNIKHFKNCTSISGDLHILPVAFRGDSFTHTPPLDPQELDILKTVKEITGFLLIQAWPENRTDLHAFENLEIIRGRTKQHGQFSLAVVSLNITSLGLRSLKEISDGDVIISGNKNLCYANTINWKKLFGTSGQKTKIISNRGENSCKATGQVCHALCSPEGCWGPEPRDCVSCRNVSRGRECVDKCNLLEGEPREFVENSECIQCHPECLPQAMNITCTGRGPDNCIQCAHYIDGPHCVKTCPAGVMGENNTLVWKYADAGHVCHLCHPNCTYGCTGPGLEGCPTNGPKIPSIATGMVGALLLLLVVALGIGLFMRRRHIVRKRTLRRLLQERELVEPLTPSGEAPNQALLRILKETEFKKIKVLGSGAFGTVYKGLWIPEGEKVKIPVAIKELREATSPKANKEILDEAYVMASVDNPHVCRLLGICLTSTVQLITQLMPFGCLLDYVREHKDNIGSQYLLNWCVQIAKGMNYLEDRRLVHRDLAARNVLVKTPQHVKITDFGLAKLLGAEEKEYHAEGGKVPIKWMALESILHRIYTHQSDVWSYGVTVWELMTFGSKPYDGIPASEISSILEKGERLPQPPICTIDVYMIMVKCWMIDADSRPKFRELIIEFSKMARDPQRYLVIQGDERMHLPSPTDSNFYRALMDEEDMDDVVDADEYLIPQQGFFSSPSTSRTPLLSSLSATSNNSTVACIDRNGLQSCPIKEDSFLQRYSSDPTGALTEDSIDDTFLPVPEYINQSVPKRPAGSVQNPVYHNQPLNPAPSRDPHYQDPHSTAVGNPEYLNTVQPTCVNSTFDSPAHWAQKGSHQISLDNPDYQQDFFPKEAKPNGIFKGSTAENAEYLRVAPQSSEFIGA
Sequence of Epidermal growth factor receptor (Homo sapiens, UniProt P00533, L858R/T790M) (P00533 25-1210 T790M/L858R limits assumed): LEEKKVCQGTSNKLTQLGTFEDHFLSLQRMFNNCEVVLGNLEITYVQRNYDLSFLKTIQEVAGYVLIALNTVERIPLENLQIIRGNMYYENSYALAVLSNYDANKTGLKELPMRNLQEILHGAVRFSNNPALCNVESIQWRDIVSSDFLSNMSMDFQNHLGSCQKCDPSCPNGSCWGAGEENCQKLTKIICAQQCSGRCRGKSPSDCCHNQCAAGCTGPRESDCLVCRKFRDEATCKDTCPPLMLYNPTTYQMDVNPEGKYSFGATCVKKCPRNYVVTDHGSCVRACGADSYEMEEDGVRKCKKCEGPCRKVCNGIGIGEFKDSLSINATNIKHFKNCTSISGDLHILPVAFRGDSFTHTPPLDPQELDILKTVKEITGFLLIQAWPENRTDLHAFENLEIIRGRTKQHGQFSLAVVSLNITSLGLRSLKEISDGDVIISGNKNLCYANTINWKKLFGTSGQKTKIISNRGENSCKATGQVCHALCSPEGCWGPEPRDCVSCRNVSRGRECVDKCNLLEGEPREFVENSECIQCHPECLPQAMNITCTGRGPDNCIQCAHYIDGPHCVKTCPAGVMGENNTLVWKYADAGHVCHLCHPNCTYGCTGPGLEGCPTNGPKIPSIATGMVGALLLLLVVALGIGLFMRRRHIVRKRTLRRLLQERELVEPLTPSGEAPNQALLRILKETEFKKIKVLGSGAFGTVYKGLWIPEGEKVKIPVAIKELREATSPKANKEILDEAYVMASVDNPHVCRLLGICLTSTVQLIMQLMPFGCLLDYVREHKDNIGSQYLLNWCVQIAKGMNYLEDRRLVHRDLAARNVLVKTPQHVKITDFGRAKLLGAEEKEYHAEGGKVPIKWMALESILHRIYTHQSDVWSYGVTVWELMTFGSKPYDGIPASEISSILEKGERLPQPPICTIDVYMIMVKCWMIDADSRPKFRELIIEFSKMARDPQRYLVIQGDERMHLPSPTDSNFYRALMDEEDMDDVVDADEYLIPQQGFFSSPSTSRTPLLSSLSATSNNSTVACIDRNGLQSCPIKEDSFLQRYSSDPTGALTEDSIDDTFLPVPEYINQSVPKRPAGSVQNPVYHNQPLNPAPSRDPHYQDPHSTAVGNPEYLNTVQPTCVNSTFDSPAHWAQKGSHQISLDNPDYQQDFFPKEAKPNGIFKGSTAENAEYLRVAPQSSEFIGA

Consider `COc1ccc(-c2c3c4cc(OCCCN(C)C)c(OCCCN(C)C)cc4oc(=O)c3n3ccc4cc(O)c(OC)cc4c23)cc1O`, for which the IC50 in test [1] was determined as 31.8 nM; in test [2], 8.9 nM.

As for `COc1ccc(-c2c3c4cc(OC)c(OCCCN(C)C)cc4oc(=O)c3n3ccc4cc(O)c(OC)cc4c23)cc1O`, the IC50 in test [1] came out at 215 nM; in test [2], 188 nM.

Consider `COc1ccc(-c2c3c4cc(OCCCN5CCOCC5)c(OCCCN5CCOCC5)cc4oc(=O)c3n3ccc4cc(O)c(OC)cc4c23)cc1O`, for which the IC50 in test [1] and in test [2] was over 1000 nM throughout.

Turning to `COc1ccc(-c2c3c4cc(OC)c(OCCN(C)C)cc4oc(=O)c3n3ccc4cc(O)c(OC)cc4c23)cc1O`, the half-inhibitory concentration (IC50) in test [1] was 595 nM; in test [2] it was 560 nM.

Take `COc1ccc(-c2c3c4cc(OCCN(C)C)c(OC)cc4oc(=O)c3n3ccc4cc(O)c(OC)cc4c23)cc1O`: the IC50 in test [1] was 842 nM; in test [2] it was over 1000 nM.

Regarding `COc1ccc(-c2c3c4cc(O)c(OC)cc4oc(=O)c3n3ccc4cc(O)c(OC)cc4c23)cc1O`, the half-maximal inhibitory concentration (IC50) in test [1] was 249 nM; in test [2] it was 397 nM.

In the case of `COc1ccc(-c2c3c4cc(OC)c(OC)cc4oc(=O)c3n3ccc4cc(O)c(OC)cc4c23)cc1O`, the half-inhibitory concentration (IC50) in test [1] and in test [2] was over 1000 nM each time.

`COc1ccc(-c2c3c4cc(O)c(OCCCN(C)C)cc4oc(=O)c3n3ccc4cc(O)c(OC)cc4c23)cc1O`: the IC50 came out at 47.8 nM in test [1] and 82.6 nM in test [2].

Take `COc1ccc(-c2c3c4cc(OC)c(OCCNC(=N)N)cc4oc(=O)c3n3ccc4cc(O)c(OC)cc4c23)cc1O`: the IC50 in test [1] and in test [2] was over 1000 nM each time.

As to `COc1ccc(-c2c3c4cc(OCCN(C)C)c(OCCN(C)C)cc4oc(=O)c3n3ccc4cc(O)c(OC)cc4c23)cc1O`, the IC50 stood at 191 nM in test [1] and 233 nM in test [2].

`COc1ccc(-c2c3c4cc(OC)c(OCCCNC(=N)N)cc4oc(=O)c3n3ccc4cc(O)c(OC)cc4c23)cc1O`: the figures for the IC50 in test [1] and in test [2] were 47 nM and 39 nM, respectively.

By IC50 is commonly meant the midpoint of a concentration-inhibition curve.
